Data on 22 compounds can be found in US6872805B2 (Bristol-Myers Squibb Company, priority 2000, dated 2005).

For assay [1], the system named is HCV replicon in Huh7 cells. Briefly: HCV replicon cell-based assay. The following applies: Hepatitis C virus, Huh-7, 96 h; HCV replicon, Huh7 cells, 4 days; activity ranges; read-out: EC50. Set-up: species or system HCV strain 1B. An excerpt: An HCV replicon whole cell system was established as described by Lohmann V, Korner F, Koch J, Herian U, Theilmann L, Bartenschlager R., Science 285(5424):110-3 (1999). This system enabled us to evaluate the effects of our HCV Protease compounds on HCV RNA replication. Briefly, using the HCV strain 1B sequence described in the Lohmann paper (Assession number:AJ238799), an HCV cDNA was generated encoding the 5′ internal ribosome entry site (IRES), the neo gene, the EMCV-IRES and the HCV nonstructural proteins, NS3-NS5B, and 3′ NTR. […] Resulting cell lines were characterized for positive and negative RNA production and protein production over time.
Huh7 cells, constitutively expressing the HCV replicon, were grown in DMEM containing 10% FCS (Fetal calf serum) and 1 mg/ml G418 (Gibco-BRL). Cells were seeded the night before (1.5×10^4 cells/well) in 96-well tissue-culture sterile plates. Compound was prepared in DMEM containing 4% FCS, 1:100 Penicillin/Streptomysin, 1:100 L-glutamine and 0.5% DMSO. Compound/DMSO mixes were added to the cells and incubated for 4 days at 37° C. After 4 days, cells were either lyzed using the Rneasy kit (Qiagen) to isolate and purify RNA for an EC50 determination or assessed for cytotoxicity using alamar Blue (Trek Diagnotstic Systems) for a CC50 reading. For an EC50 determination, purified total RNA was normalized using RiboGreen (Jones L J, Yue S T, Cheung C Y, Singer V L, Anal. Chem., 265(2):368-74 (1998)) and relative quantitation of HCV RNA expression assessed using the Taqmann procedure (Kolykhalov A A, Mihalik K, Feinstone S M, Rice C M, Journal of Virology 74, 2046-2051 (2000)). Briefly, RNA made to a volume of 5 μl (≦1 ng) was added to a 20 μl Ready-Mix containing the following: 5×EZ rTth buffer, 3 mM MnOAc2, 3 mM dNTPs, 200 nM forward primer, 600 nM reverse primer, 100 nM probe and rTth polymerase. Samples containing known concentrations of HCV RNA transcript were run as standards. Using the following cycling protocol (95° C., 1 min; 60° C., 0.5 min; 95° C., 2 min; 40 cycles of 94° C., 0.5 min, 60° C.; 1 min; and completing with 60° C., 10 min), HCV RNA expression was quantitated as described in the Perkin Elmer manual. The toxicity of compound (CC50) was determined by adding 1/10th volume of alamar Blue to the media incubating the cells. After 4 hr, the fluorescence signal from each well was read, with an excitation wavelength at 530 nm and an emission wavelength of 580 nm, using the Cytofluor Series 4000 (Perspective Biosystems).

In assay [2] the target is HCV NS3/4A protease complex (Hepatitis C virus genotype 1a, UniProt P27958, C1454S/C1711G). Briefly: Recombinant HCV NS3/4A protease complex FRET peptide assay (strain not stated). The assay is classed as biochemical. The note with it: IC50, NS3/4A protease enzyme assay, strain not stated; activity ranges.
Sequence of HCV NS3/4A protease complex (P27958 1027-1711, stated change not applied): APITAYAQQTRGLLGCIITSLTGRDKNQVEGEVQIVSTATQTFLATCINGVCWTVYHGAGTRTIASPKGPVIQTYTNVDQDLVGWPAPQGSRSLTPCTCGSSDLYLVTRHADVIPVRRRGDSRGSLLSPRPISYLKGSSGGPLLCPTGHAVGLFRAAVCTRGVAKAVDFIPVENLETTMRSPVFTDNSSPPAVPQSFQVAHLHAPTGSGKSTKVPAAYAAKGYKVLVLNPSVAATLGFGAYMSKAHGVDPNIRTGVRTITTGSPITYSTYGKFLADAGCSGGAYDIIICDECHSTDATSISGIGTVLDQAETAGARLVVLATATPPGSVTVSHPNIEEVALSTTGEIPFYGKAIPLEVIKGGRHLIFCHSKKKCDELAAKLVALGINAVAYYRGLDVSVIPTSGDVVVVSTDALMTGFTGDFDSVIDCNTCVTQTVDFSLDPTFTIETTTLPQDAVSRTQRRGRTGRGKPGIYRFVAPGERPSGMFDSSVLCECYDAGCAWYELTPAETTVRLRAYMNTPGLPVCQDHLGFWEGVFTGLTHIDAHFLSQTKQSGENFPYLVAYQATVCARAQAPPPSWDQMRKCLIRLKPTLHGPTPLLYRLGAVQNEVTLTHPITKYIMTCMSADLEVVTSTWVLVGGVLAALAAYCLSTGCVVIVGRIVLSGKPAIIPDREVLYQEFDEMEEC
Sequence of HCV NS3/4A protease complex (P27958 1027-1711, stated change not applied): as above

One may read the EC50 as the concentration giving half of the maximal effect. By IC50 is commonly meant the concentration that inhibits the measured activity by half. `C=CC1C[C@]1(NC(=O)[C@@H]1C[C@@H](Oc2cc(-c3ccccc3)nc3cc(OC)ccc23)CN1C(=O)[C@@H](NC(=O)OC(C)(C)C)C(C)(C)C)C(=O)NS(=O)(=O)CC(C)(C)C` (stereo in doubt) [Compound 14, {1-[2-[1-(2,2-Dimethylpropane-1-sulfonylaminocarbonyl)-2-vinylcyclopropylcarbamoyl]-4-(7-methoxy-2-phenylquinolin-4-yloxy)pyrrolidine-1-carbonyl]-2,2-dimethylpropyl}-carbamic acid tert-butyl ester]: in assay [1], the EC50 was under 500 nM. The IC50 in assay [2] is under 500 nM.
For `C=CC1C[C@]1(NC(=O)[C@@H]1C[C@@H](Oc2cc(-c3ccccc3)nc3cc(OC)ccc23)CN1C(=O)[C@@H](NC(=O)OC(C)(C)C)C(C)(C)C)C(=O)NS(=O)(=O)CC1CCC1` (stereo in doubt) [Compound 15, {1-[2-(1-Cyclobutylmethanesulfonylaminocarbonyl-2-vinylcyclopropylcarbamoyl)-4-(7-methoxy-2-phenylquinolin-4-yloxy)pyrrolidine-1-carbonyl]-2,2-dimethylpropyl}-carbamic acid tert-butyl ester], the concentration giving a half-maximal response (EC50) in assay [1] was under 5000 nM. The IC50 in assay [2] is under 500 nM.
`C=CC1C[C@]1(NC(=O)[C@@H]1C[C@@H](Oc2cc(-c3ccccc3)nc3cc(OC)ccc23)CN1C(=O)[C@@H](NC(=O)OC(C)(C)C)C(C)(C)C)C(=O)NS(=O)(=O)CC1CC1` (stereo in doubt) [Compound 16, {1-[2-(1-Cyclopropylmethanesulfonylaminocarbonyl-2-vinylcyclopropylcarbamoyl)-4-(7-methoxy-2-phenylquinolin-4-yloxy)pyrrolidine-1-carbonyl]-2,2-dimethylpropyl}-carbamic acid tert-butyl ester]: the EC50 in assay [1] was under 500 nM. Moreover, in assay [2], the 50% inhibitory concentration (IC50) was under 500 nM.
For `C=CC1C[C@]1(NC(=O)[C@@H]1C[C@@H](Oc2cc(-c3ccccc3)nc3cc(OC)ccc23)CN1C(=O)[C@@H](NC(=O)NC(C)(C)C)C(C)(C)C)C(=O)NS(=O)(=O)C1CC1` (stereo in doubt) [Compound 19, 1-[2-(3-tert-Butylureido)-3,3-dimethylbutyryl]-4-(7-methoxy-2-phenylquinolin-4-yloxy)pyrrolidine-2-carboxylic acid (1-cyclopropanesulfonylaminocarbonyl-2-vinylcyclopropyl)amide], the EC50 in assay [1] was under 50 nM. For the same compound, in assay [2], the 50% inhibitory concentration (IC50) was under 50 nM.
With `C=CC1C[C@]1(NC(=O)[C@@H]1C[C@@H](Oc2cc(-c3ccccc3)nc3cc(OC)ccc23)CN1C(=O)[C@@H](NC(=O)N(CCC(F)(F)F)CC1CC1)C(C)(C)C)C(=O)NS(=O)(=O)C1CC1` (stereo in doubt) [Compound 20, 1-{2-[3-Cyclopropylmethyl-3-(3,3,3-trifluoropropyl)-ureido]-3,3-dimethylbutyryl}-4-(7-methoxy-2-phenyl-quinolin-4-yloxy)-pyrrolidine-2-carboxylic acid (1-cyclopropanesulfonylaminocarbonyl-2-vinyl-cyclopropyl)amide], the EC50 in assay [1] was under 500 nM. In addition, the IC50 in assay [2] was under 50 nM.
For `CCC1C[C@]1(NC(=O)[C@@H]1C[C@@H](Oc2cc(-c3ccccc3)nc3cc(OC)ccc23)CN1C(=O)[C@@H](NC(=O)OC1CCCC1)C(C)C)C(=O)NS(=O)(=O)C1CC1` (some centres unmarked) [Compound 6], the half-maximal effective concentration (EC50) in assay [1] is under 50 nM. Also, the IC50 in assay [2] is under 50 nM.
Regarding `CCOC(=O)N[C@H](C(=O)N1C[C@H](Oc2cc(-c3ccccc3)nc3cc(OC)ccc23)C[C@H]1C(=O)N[C@]1(C(=O)NS(=O)(=O)C2CC2)CC1CC)C(C)C` (some centres unmarked) [Compound 7], the EC50 in assay [1] was under 500 nM. The IC50 in assay [2] is under 50 nM.
For the compound `CCC1C[C@]1(NC(=O)C1C[C@@H](Oc2cc(-c3ccccc3)nc3cc(OC)ccc23)CN1C(=O)[C@@H](NC(=O)OCCF)C(C)C)C(=O)NS(=O)(=O)C1CC1` (some centres unmarked) [Compound 9], the EC50 in assay [1] was under 500 nM. Moreover, in assay [2], the IC50 is under 50 nM.
For `C=CC1C[C@]1(NC(=O)[C@@H]1C[C@@H](Oc2cc(-c3ccccc3)nc3cc(OC)ccc23)CN1C(=O)[C@@H](NC(=O)OC(C)(C)C)C(C)(C)C)C(=O)NS(=O)(=O)c1ccc(Br)cc1` (some centres unmarked) [Compound 17], in assay [1], the 50% effective concentration (EC50) was under 500 nM. In addition, in assay [2], the IC50 is under 500 nM.
As to `C=CC1C[C@]1(NC(=O)[C@@H]1C[C@@H](Oc2cc(-c3ccccc3)nc3cc(OC)ccc23)CN1C(=O)[C@@H](NC(=O)O[C@H]1CCOC1)C(C)(C)C)C(=O)NS(=O)(=O)C1CC1` (stereo partly drawn) [Compound 18, {1-[2-(1-Cyclopropanesulfonylaminocarbonyl-2-vinylcyclopropylcarbamoyl)-4-(7-methoxy-2-phenyl-quinolin-4-yloxy)-pyrrolidine-1-carbonyl]-2,2-dimethyl-propyl}carbamic acid tetrahydrofuran-3(S)-yl ester], the EC50 in assay [1] is under 50 nM. Moreover, the IC50 in assay [2] is under 50 nM.
As for `COc1ccc2c(O[C@@H]3CC(C(=O)NC4(C(=O)NS(=O)(=O)C5CC5)CC4)N(C(=O)[C@@H](NC(=O)OC(C)(C)C)C(C)C)C3)cc(-c3ccccc3)nc2c1` (some centres unmarked) [Compound 21], the half-maximal effective concentration (EC50) in assay [1] is under 5000 nM. Besides, in assay [2], the IC50 is under 50 nM.
For the compound `COc1ccc2c(O[C@@H]3C[C@@H](C(=O)NC4(C(=O)NS(=O)(=O)C5CC5)CCC4)N(C(=O)[C@@H](NC(=O)OC(C)(C)C)C(C)(C)C)C3)cc(-c3ccccc3)nc2c1` [Compound 22], the concentration for a half-maximal effect (EC50) in assay [1] is under 500 nM. The half-maximal inhibitory concentration (IC50) in assay [2] was under 50 nM.
In the same order, the values of `C=CC1C[C@]1(NC(=O)[C@@H]1C[C@@H](Oc2cc(-c3ccccc3)nc3cc(OC)ccc23)CN1C(=O)[C@@H](NC(=O)OC(C)(C)C)C(C)(C)C)C(=O)NS(=O)(=O)CCCC` (some centres unmarked) [Compound 23] are under 500 nM and under 50 nM.
In the same order, the values of `C=CC1C[C@]1(NC(=O)[C@@H]1C[C@@H](Oc2cc(-c3ccccc3)nc3cc(OC)ccc23)CN1C(=O)[C@@H](NC(=O)OC(C)(C)C)C(C)CC)C(=O)NS(=O)(=O)C1CC1` (some centres unmarked) [Compound 24] are under 500 nM and under 500 nM.
In the case of `C=CC1C[C@]1(NC(=O)[C@@H]1C[C@@H](Oc2cc(-c3ccccc3)nc3cc(OC)ccc23)CN1C(=O)[C@@H](NC(=O)OC(C)(C)C)C(C)(C)C)C(=O)NS(=O)(=O)CC` (some centres unmarked) [Compound 25], the EC50 in assay [1] was under 500 nM. In addition, the IC50 in assay [2] is under 50 nM.
The like results for `C=CC1C[C@]1(NC(=O)[C@@H]1C[C@@H](Oc2cc(-c3ccccc3)nc3cc(OC)ccc23)CN1C(=O)[C@@H](NC(=O)OC(C)(C)C)C(C)(C)C)C(=O)NS(=O)(=O)CCC` (some centres unmarked) [Compound 26] were, in that order, under 500 nM and under 50 nM.
In the case of `C=CC1C[C@]1(NC(=O)[C@@H]1C[C@@H](Oc2cc(-c3ccccc3)nc3cc(OC)ccc23)CN1C(=O)[C@@H](NC(=O)OC(C)(C)C)C(C)(C)C)C(=O)NS(=O)(=O)C(C)C` (some centres unmarked) [Compound 27], the EC50 in assay [1] is under 500 nM. Besides, the 50% inhibitory concentration (IC50) in assay [2] is under 50 nM.
In the case of `C=CC1C[C@]1(NC(=O)[C@@H]1C[C@@H](Oc2cc(-c3ccccc3)nc3cc(OC)ccc23)CN1C(=O)[C@@H](N)C(C)(C)C)C(=O)NS(=O)(=O)C1CC1` (some centres unmarked) [Compound 28], the EC50 in assay [1] was under 5000 nM. Further, the half-maximal inhibitory concentration (IC50) in assay [2] was under 50 nM.
For the compound `C=CC1C[C@]1(NC(=O)[C@@H]1C[C@@H](Oc2cc(-c3ccccc3)nc3cc(OC)ccc23)CN1C(=O)[C@@H](NC(=O)OC(C)(C)C)C1CCCC1)C(=O)NS(=O)(=O)C1CC1` (some centres unmarked) [Compound 29], the EC50 in assay [1] is under 50 nM. Moreover, the half-inhibitory concentration (IC50) in assay [2] was under 50 nM.
As to `C=CC1C[C@]1(NC(=O)[C@@H]1C[C@@H](Oc2cc(-c3ccccc3)nc3cc(OC)ccc23)CN1C(=O)[C@@H](NC(=O)OC(C)(C)C)C1CCCC1)C(=O)NS(=O)(=O)C(C)C` (some centres unmarked) [Compound 30], the EC50 in assay [1] was under 50 nM. Besides, the 50% inhibitory concentration (IC50) in assay [2] was under 50 nM.
For the compound `C=CC1C[C@]1(NC(=O)[C@@H]1C[C@@H](Oc2cc(-c3ccccc3)nc3cc(OC)ccc23)CN1C(=O)[C@@H](NC(=O)OC(C)(C)C)C(C)C)C(=O)NS(=O)(=O)C1CC1` (some centres unmarked) [Compound 31], in assay [1], the EC50 was under 50 nM. Moreover, the IC50 in assay [2] was under 50 nM.
Regarding `C=CC1C[C@]1(NC(=O)[C@@H]1C[C@@H](Oc2cc(-c3ccccc3)nc3cc(OC)ccc23)CN1C(=O)[C@@H](NC(=O)OC(C)(C)C)C(C)C)C(=O)NS(=O)(=O)C(C)C` (some centres unmarked) [Compound 32], the EC50 in assay [1] is under 50 nM. In addition, the 50% inhibitory concentration (IC50) in assay [2] is under 50 nM.
